Series [1] deals with Candida albicans (ATCC No. 10231). Put plainly: Antimicrobial activity, log reduction of cfu. In kind it is cell-based. An excerpt:
(§1) The viable microorganisms used in the invention were not more than five passages removed from the original ATCC culture. As described herein, one passage is defined as the transfer of organisms from an established culture to fresh medium and all transfers are counted.
(§2) Cultures received from the ATCC are resuscitated according to the directions provided by the ATTC. Cells grown in broth were pelleted by centrifugation, resuspended in 1/20th the volume of fresh maintenance broth, and combined with an equal volume of 20% (v/v in water) sterile glycerol. Cells grown on agar were scraped from the surface into the maintenance broth also containing 10% glycerol broth. Small aliquots of the suspension were dispensed into sterile vials and the vials were stored in liquid nitrogen or in a mechanical freezer at a temperature no higher than about −50 °C. When a fresh seed-stock vial was required, it was removed and used to inoculate a series of working stock cultures. These working stock cultures were then used periodically (each day in the case of bacteria and yeast) to start the inoculum culture.
(§3) The culture conditions for the inoculum culture is substantially as described in Table IV. For example, suitable media can include but is not limited to, Soybean-Casein Digest or Sabouraud Dextrose Agar Medium. […]
(§4) The suspension should be refrigerated if it is not used within 2 hours. To confirm the initial cfu per mL estimate, the number of cfu per mL in each suspension was determined using the conditions of media and microbial recovery incubation times listed in Table IV (e.g., from about 3 to about 7 days). This value serves to calibrate the size of inoculum used in the test. The bacterial and yeast suspensions were used within 24 hours of harvest; whereas the fungal preparation can be stored under refrigeration for up to 7 days.
(§5) To determine which alkylglycoside formulations have antibacterial activity, the formulations were prepared in phosphate buffered saline (PBS) at pH 7. As a source of nutrition, either 1.5 mg/mL bovine serum albumin (BSA; see Tables V and VI) or 1 mg/mL of PYY was added (see Table VII) to the medium. BSA (CAS Number: 9048-46-8) was obtained from Sigma-Aldrich, St. Louis, MO, USA, n-dodecyl-4-O-α-D-glucopyranosyl-β-D-glucopyranoside and n-tetradecyl-4-O-α-D-glucopyranosyl-β-D-glucopyranoside were obtained from Anatrace Inc., Maumee, OH, USA, and PYY was obtained from Bachem California Inc., Torrance, CA, USA.
(§6) Antibacterial activity of the alkylglycosides were conducted in four sterile, capped bacteriological containers of suitable size into which a sufficient volume of alkylglycoside solution had been transferred. Each container was inoculated with one of the prepared and standardized inoculums and mixed. The volume of the suspension inoculum was between about 0.5% and about 1.0% of the volume of the alkylglycoside solution. […]. To determine the level of inhibition of growth, or reduction of growth based on a logarithmic scale, the initial concentration of viable microorganisms in each test preparation was estimated based on the concentration of microorganisms in each of the standardized inoculum as determined by the plate-count method. The inoculated containers were then incubated at about 22.5 °C±2.5. The growth or non-growth of the microorganisms in each culture/container were again determined at day 14 and day 28. The number of cfu present in each calculation was determined by the plate-count procedure standard in the art for the applicable intervals. The change in the orders of magnitude of bacterium and/or fungi was then determined by subtracting the first calculated log 10 values of the concentrations of cfu per mL present at the start or beginning (e.g., day 0), from the log 10 values of the concentration of cfu per mL for each microorganism at the applicable test intervals (e.g., day 14 and day 28; see Tables V, VI and VII).

The subject of series [2] is Aspergillus niger (ATCC No. 16404). The experiment in a line: Antimicrobial activity, log reduction of cfu. In kind it is cell-based. The note with it: for log reduction at […]: Aspergillus niger.
Text: as §1, §2, §3, §4, §5, §6

In series [3] the test system is Escherichia coli (ATCC No. 8739). The experiment in a line: Antibacterial activity, log reduction of cfu. In kind it is cell-based. The note with it: Escherichia coli.
Text: as §1, §2, §3, §4, §5, §6

The test system of series [4] is Staphylococcus aureus (ATCC No. 6538). Put plainly: Antibacterial activity, log reduction of cfu. The format is cell-based.
Text: as §1, §2, §3, §4, §5, §6

Series [5] in a line: Oral phenylephrine tablet bioavailability in a canine model. The format is in vivo, dog. The settings on record: compressed tablets. Here is the method: In a canine model, subjects were dosed orally with various phenylephrine (PE) tablet formulations, and blood samples were taken to determine the rate of parent phenyl ethyl phenylephrine absorption. Blood levels of parent phenylephrine were measured. Three subject groups were created with each alkylsaccharide test group containing five subjects in each test group. All subject groups received 10 mg of phenylephrine as a single tablet. Each subject was in the fasting state for overnight and two hours post dose. Blood samples were taken at pre-dose, 5, 10, 15, 30, 45 min., 1, 2, and 3 hours.
Comparator was the standard 30 mg (total weight including excipients) phenylephrine tablet was no absorption enhancer. Group number 2 tablets contain the alkylsaccharide designated A3, which is n-dodecyl-beta-D-maltoside in the amounts of 2.5 mg, 5 mg, and 7.5 mg, respectively. Group number three tablets contain the alkylsaccharide designated B3, which is sucrose monododecanoate, in the amounts of 5 mg, 10 mg, and 20 mg, respectively.

Series [6] relates to blood glucose. The experiment in a line: Ocular administration of insulin plus absorption enhancer, blood glucose in anesthetized rats. In kind it is in vivo, rat (male Sprague-Dawley). The note with it: for Blood Glucose: insulin eye drops + 0.50%.
For series [7] the following is noted: rat, in vivo.
Method: Each set of drug solutions is administered to six groups of eight rats each by 20 uL instillation to a single nare of each animal. […] After the last blood sample is collected each animal is euthanized with CO2. […] Plasma samples are stored at −70 °C until analyzed. […] The concentration vs time data are plotted to determine the Cmax at each alkylsaccharide concentration and the ratio of Cmax with and without alkylsaccharide present is calculated and recorded as shown in Table XIX.
Series [8] deals with blood glucose. The experiment in a line: Oral liraglutide with Intravail A3, blood glucose under dietary sugar challenge. The note with it: Intravail A3 (FIG. 11). The format is in vivo, human.
Method: Procedure was as follows. […] Composition was mixed with disposable plastic dropper. 40 grams of dietary sugar was ingested and 60 minutes allowed to pass. Blood glucose was measured (upper arm just above elbow on left arm) using meter=To. Deposit composition on back of tongue and swallow. Blood glucose level was measured and recorded at T=10, 20, 30, 40, 55, 70, 80 and 90 min.
For series [9] the following is noted: formulations specifically optimized for oral delivery; cited from earlier work.

Like-named read-outs stand apart in the source and are kept apart here.

As to `CCCCCCCCCCCCO[C@@H]1O[C@H](CO)[C@@H](O[C@H]2O[C@H](CO)[C@@H](O)[C@H](O)[C@H]2O)[C@H](O)[C@H]1O` [Dodecyl Maltoside, n-Dodecyl-4-O-α-D-glucopyranosyl-β-D-glucopyranoside], the log reduction at […] in series [1] (ATCC10231, 336 h) is not below 4.5; in series [1] (ATCC10231, 336 h, read-out: log reduction of microorganisms), 3; in series [1] (ATCC10231, 672 h) it was not below 4.5; in [1] (ATCC10231, 672 h, read-out: log reduction of microorganisms), not below 5.3; in [2] (ATCC16404, 336 h), 4.7; in [2] (ATCC16404, 336 h, read-out: log reduction of microorganisms), 0.7. Besides, the log reduction at […] in [2] (ATCC16404, 672 h) was 4.7; in [3] (ATCC8739, 336 h), not below 5; in [3] (ATCC8739, 672 h), not below 5; in series [3] (ATCC8739, 672 h, read-out: log reduction of microorganisms), 0.1; in series [4] (ATCC6538, 336 h), not below 4.9; in [4] (ATCC6538, 336 h, read-out: log reduction of microorganisms) it was not below 5.2. For the same molecule, the log reduction at […] in series [4] (ATCC6538, 672 h) was not below 4.9; in series [4] (ATCC6538, 672 h, read-out: log reduction of microorganisms) it was not below 5.2. Also, the “growth from initial count” value in [2] ([…], day 28) was “No growth”. Further, the “increase of oral bioavailability of phenylephrine” value in [5] is on record as “up to 56%”. Also, the “effect on ocular insulin absorption” value in [6] (0.5% and […] enhancer with insulin eye drops) is “equally effective”. Further, the “effect on blood glucose / ocular insulin absorption” value in series [6] (0.5% enhancer with 0.2% insulin eye drops) is given as “maintained in the normoglycemic (80-120 mg/dl) or near-normoglycemic (120-160 mg/dl) range”. In addition, the “effect on ocular insulin absorption (alkyl chain length comparison)” value in series [6] (alkylmaltosides with insulin eye drops) is reported as “more effective”. Further, the Blood Glucose came to 379 ± 4 mg/dL in series [6] (0 min); 297 ± 18 mg/dL in [6] (30 min); 188 ± 25 mg/dL in series [6] (60 min); 141 ± 13 mg/dL in [6] (90 min); 123 ± 5 mg/dL in series [6] (120 min); 366 ± 12 mg/dL in series [6] (-10 min (pre-dose)). Besides, in [6] (-20 min (pre-dose)), the Blood Glucose is 375 ± 9 mg/dL. Also, the “Ratio Cmax(alkylsacch)/Cmax(No alkylsacch)” value in series [7] is given as not below 1.5.
In the case of `CCCCCCCCCCCCCCCC(=O)N[C@@H](CCC(=O)NCCCC[C@H](NC(=O)[C@H](C)NC(=O)[C@H](C)NC(=O)[C@H](CCC(N)=O)NC(=O)CNC(=O)[C@H](CCC(=O)O)NC(=O)[C@H](CC(C)C)NC(=O)[C@H](Cc1ccc(O)cc1)NC(=O)[C@H](CO)NC(=O)[C@H](CO)NC(=O)[C@@H](NC(=O)[C@H](CC(=O)O)NC(=O)[C@H](CO)NC(=O)[C@@H](NC(=O)[C@H](Cc1ccccc1)NC(=O)[C@@H](NC(=O)CNC(=O)[C@H](CCC(=O)O)NC(=O)[C@H](C)NC(=O)[C@@H](N)Cc1cnc[nH]1)[C@@H](C)O)[C@@H](C)O)C(C)C)C(=O)N[C@@H](CCC(=O)O)C(=O)N[C@@H](Cc1ccccc1)C(=O)N[C@H](C(=O)N[C@@H](C)C(=O)N[C@@H](Cc1c[nH]c2ccccc12)C(=O)N[C@@H](CC(C)C)C(=O)N[C@H](C(=O)N[C@@H](CCCNC(=N)N)C(=O)NCC(=O)N[C@@H](CCCNC(=N)N)C(=O)NCC(=O)O)C(C)C)[C@@H](C)CC)C(=O)O` [Liraglutide], in series [8], the dose response result is “positive dose response”.
For “Parathyroid hormone: parathyroid hormone”, the oral bioavailability in series [9] is reported as 2.1%.

(Values after patent publication US20260364175A1, “COMPOSITIONS FOR DRUG ADMINISTRATION” (Aegis Therapeutics, LLC, priority 2018, published 2026).)
